Target: T1, mortalin (GRP75, mitochondrial Stress-70 protein) (Homo sapiens, UniProt P38646)
T1 construct: gene HSPA9
Assay: SPR competition (mortalin pre-incubated with MKT-077, injected over immobilized p53)
Assay type: binding

T1 sequence (P38646 47-679): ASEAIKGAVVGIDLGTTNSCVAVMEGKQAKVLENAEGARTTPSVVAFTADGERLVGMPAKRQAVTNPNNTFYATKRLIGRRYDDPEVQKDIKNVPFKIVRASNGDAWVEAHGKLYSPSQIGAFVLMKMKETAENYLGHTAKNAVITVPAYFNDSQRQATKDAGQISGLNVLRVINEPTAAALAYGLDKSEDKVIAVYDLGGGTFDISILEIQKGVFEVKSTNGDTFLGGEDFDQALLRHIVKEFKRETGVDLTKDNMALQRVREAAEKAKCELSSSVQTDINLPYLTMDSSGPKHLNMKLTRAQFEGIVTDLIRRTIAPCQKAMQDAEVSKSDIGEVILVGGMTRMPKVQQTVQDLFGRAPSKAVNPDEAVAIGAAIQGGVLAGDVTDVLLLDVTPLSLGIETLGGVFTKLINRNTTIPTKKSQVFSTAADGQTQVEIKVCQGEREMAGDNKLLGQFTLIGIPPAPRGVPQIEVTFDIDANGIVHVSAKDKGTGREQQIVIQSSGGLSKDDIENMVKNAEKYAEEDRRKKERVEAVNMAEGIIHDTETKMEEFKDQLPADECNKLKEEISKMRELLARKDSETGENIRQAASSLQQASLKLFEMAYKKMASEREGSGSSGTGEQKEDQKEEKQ
T1 sequence (P04637 whole entry partner): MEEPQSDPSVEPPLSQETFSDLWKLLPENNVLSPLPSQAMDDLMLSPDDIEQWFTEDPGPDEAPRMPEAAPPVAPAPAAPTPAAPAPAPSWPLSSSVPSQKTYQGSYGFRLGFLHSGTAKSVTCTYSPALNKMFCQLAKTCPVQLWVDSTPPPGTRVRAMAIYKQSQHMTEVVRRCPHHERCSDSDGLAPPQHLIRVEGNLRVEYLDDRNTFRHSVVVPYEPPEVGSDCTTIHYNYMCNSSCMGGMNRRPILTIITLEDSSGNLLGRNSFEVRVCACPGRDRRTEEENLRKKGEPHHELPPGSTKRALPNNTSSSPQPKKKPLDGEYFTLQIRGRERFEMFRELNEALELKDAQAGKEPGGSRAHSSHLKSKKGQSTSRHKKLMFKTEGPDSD

CCn1c(=O)/c(=C2\Sc3ccccc3N2C)s/c1=C\c1cccc[n+]1CC [MKT-077]
SPR competition (mortalin pre-incubated with MKT-077, injected over immobilized): 843.4 nM
